According to ChEMBL document CHEMBL1151757, “Synthesis, radiosynthesis, and biological evaluation of fluorine-18-labeled 2beta-carbo(fluoroalkoxy)-3beta-(3'-((Z)-2-haloethenyl)phenyl)nortropanes: candidate radioligands for in vivo imaging of the serotonin transporter with positron emission tomography” (J Med Chem, 2008):

Experiments:
Assay type in all cases: ADME, organism-based, Macaca fascicularis
[1] = Drug uptake in anesthetized cynomolgus monkey brain cerebellum after 145 mins postinjection; conditions: in vivo
[2] = Ratio of drug uptake in thalamus to cerebellum in anesthetized cynomolgus monkey after 205 mins postinjection; conditions: in vivo
[3] = Drug uptake in anesthetized cynomolgus monkey brain cerebellum after 105 mins postinjection; conditions: in vivo, 1.75 h
[4] = Drug uptake in anesthetized cynomolgus monkey brain occipital lobe after 12.5 mins postinjection; conditions: in vivo
[5] = Drug uptake in anesthetized cynomolgus monkey brain cerebellum after 185 mins postinjection; conditions: in vivo
[6] = Drug uptake in anesthetized cynomolgus monkey brain occipital lobe after 185 mins postinjection; conditions: in vivo
[7] = Drug uptake in anesthetized cynomolgus monkey brain cerebellum after 125 mins postinjection; conditions: in vivo

Work on `O=C(OCCC[18F])C1C2CCC(CC1c1cccc(/C=C\I)c1)N2` (configuration not stated) yielded a Drug uptake [1] of 2.4, a Ratio [2] of 1.6 and a Drug uptake [3] of 3.31. The Drug uptake [4] was 3.6, the Drug uptake [5] was 2.18 and the Drug uptake [6] was 2.39. The Drug uptake [7] was 2.79.
